Data: patent US12552766B2, “Pesticidally active azole amide compounds” (SYNGENTA CROP PROTECTION AG, priority 2019, dated 2026)

Assays:
Format in all cases: in vivo
[1] = tested on: Chilo suppressalis (Striped Rice Stemborer); experiment: Example B4: Chilo suppressalis, artificial diet; details: 144 h, application rate of 200 ppm, L2 larvae, 6 days after infestation, read-out: control in at least one of the three categories (mortality, anti-feedant effect, or growth inhibition)
Experimental: 24-well microtiter plates with artificial diet were treated with aqueous test solutions prepared from 10′000 ppm DMSO stock solutions by pipetting. After drying, the plates were infested with L2 larvae (6-8 per well). The samples were assessed for mortality, anti-feeding effect, and growth inhibition in comparison to untreated samples 6 days after infestation. Control of Chilo suppressalis by a test sample is given when at least one of the categories mortality, anti-feedant effect, and growth inhibition is higher than the untreated sample.

[2] = tested on: Spodoptera littoralis (Egyptian Cotton Leaf Worm); experiment: Example B9: Spodoptera littoralis, spray on cotton leaf discs; details: foliar, 72 h, application rate of 200 ppm, L1 larvae, 3 days after infestation, read-out: control in at least one of the three categories (mortality, anti-feedant effect, or growth inhibition)
Experimental: Cotton leaf discs were placed onto agar in 24-well microtiter plates and sprayed with aqueous test solutions prepared from 10′000 ppm DMSO stock solutions. After drying the leaf discs were infested with five L1 larvae. The samples were assessed for mortality, anti-feeding effect, and growth inhibition in comparison to untreated samples 3 days after infestation. Control of Spodoptera littoralis by a test sample is given when at least one of the categories mortality, anti-feedant effect, and growth inhibition is higher than the untreated sample.

[3] = tested on: Plutella xylostella (Diamond Back Moth); experiment: Example B5: Plutella xylostella, artificial diet, 24-well; details: 192 h, application rate of 200 ppm, eggs, 8 days after infestation, read-out: control in at least one of the two categories (mortality or growth inhibition)
Experimental: 24-well microtiter plates with artificial diet were treated with aqueous test solutions prepared from 10′000 ppm DMSO stock solutions by pipetting. After drying, Plutella eggs were pipetted through a plastic stencil onto a gel blotting paper and the plate was closed with it. The samples were assessed for mortality and growth inhibition in comparison to untreated samples 8 days after infestation.

[4] = tested on: Diabrotica Balteata (Corn Root Worm); experiment: Example B1: Diabrotica balteata, spray on maize sprouts; details: 96 h, application rate of 200 ppm, L2 larvae, 4 days after infestation, read-out: control in at least one of the two categories (mortality or growth inhibition)
Experimental: Maize sprouts placed onto an agar layer in 24-well microtiter plates were treated with aqueous test solutions prepared from 10′000 ppm DMSO stock solutions by spraying. After drying, the plates were infested with L2 larvae (6 to 10 per well). The samples were assessed for mortality and growth inhibition in comparison to untreated samples 4 days after infestation.

CC(NC(=O)c1cc(C(F)(F)F)cc(C(F)(F)F)c1)c1nc(Br)nn1-c1ncc(OC(F)F)cn1 (stereo not shown) [Compound P2, N-[1-[5-bromo-2-[5-(difluoromethoxy)pyrimidin-2-yl]-1,2,4-triazol-3-yl]ethyl]-3,5-bis(trifluoromethyl) benzamide]
≥ 80%: percent control (mortality, anti-feedant effect or growth inhibition) at 200 ppm [1] | percent control (mortality, anti-feedant effect or growth inhibition) at 200 ppm [2] | percent control (mortality or growth inhibition) at 200 ppm [3] | percent control (mortality or growth inhibition) at 200 ppm [4]

CC(NC(=O)c1cc(SC(F)(F)F)cc(C(F)(F)F)c1)c1nc(Br)nn1-c1ccc(C#N)cn1 (stereo not shown) [Compound P5, N-[1-[5-bromo-2-(5-cyano-2-pyridyl)-1,2,4-triazol-3-yl]ethyl]-3-(trifluoromethyl)-5-(trifluoromethylsulfanyl)benzamide]
≥ 80%: percent control (mortality, anti-feedant effect or growth inhibition) at 200 ppm [1] | percent control (mortality, anti-feedant effect or growth inhibition) at 200 ppm [2] | percent control (mortality or growth inhibition) at 200 ppm [3] | percent control (mortality or growth inhibition) at 200 ppm [4]

CC(NC(=O)c1cc(C(F)(F)F)cc(C(F)(F)F)c1)c1nc(Br)nn1-c1ccc(OC(F)F)cn1 (stereo not shown) [Compound P6, N-[1-[5-bromo-2-[5-(difluoromethoxy)-2-pyridyl]-1,2,4-triazol-3-yl]ethyl]-3,5-bis(trifluoromethyl) benzamide]
≥ 80%: percent control (mortality, anti-feedant effect or growth inhibition) at 200 ppm [1] | percent control (mortality, anti-feedant effect or growth inhibition) at 200 ppm [2] | percent control (mortality or growth inhibition) at 200 ppm [3] | percent control (mortality or growth inhibition) at 200 ppm [4]

CC(NC(=O)c1cc(OC(F)F)cc(C(F)(F)F)c1)c1nc(Br)nn1-c1ccc(OC(F)F)cn1 (stereo not shown) [Compound P7, N-[1-[5-bromo-2-[5-(difluoromethoxy)-2-pyridyl]-1,2,4-triazol-3-yl]ethyl]-3-(difluoromethoxy)-5-(trifluoromethyl) benzamide]
≥ 80%: percent control (mortality, anti-feedant effect or growth inhibition) at 200 ppm [1] | percent control (mortality, anti-feedant effect or growth inhibition) at 200 ppm [2] | percent control (mortality or growth inhibition) at 200 ppm [3] | percent control (mortality or growth inhibition) at 200 ppm [4]

CC(NC(=O)c1cc(OC(F)(F)F)cc(C(F)(F)F)c1)c1nc(Br)nn1-c1ccc(C#N)cn1 (stereo not shown) [Compound P9, N-[1-[5-bromo-2-(5-cyano-2-pyridyl)-1,2,4-triazol-3-yl]ethyl]-3-(trifluoromethoxy)-5-(trifluoromethyl)benzamide]
≥ 80%: percent control (mortality, anti-feedant effect or growth inhibition) at 200 ppm [1] | percent control (mortality, anti-feedant effect or growth inhibition) at 200 ppm [2] | percent control (mortality or growth inhibition) at 200 ppm [3] | percent control (mortality or growth inhibition) at 200 ppm [4]

CC(NC(=O)c1cc(OC(F)F)cc(C(F)(F)F)c1)c1nc(Br)nn1-c1ccc(C#N)cn1 (stereo not shown) [Compound P10, N-[1-[5-bromo-2-(5-cyano-2-pyridyl)-1,2,4-triazol-3-yl]ethyl]-3-(difluoromethoxy)-5-(trifluoromethyl)benzamide]
≥ 80%: percent control (mortality, anti-feedant effect or growth inhibition) at 200 ppm [1] | percent control (mortality, anti-feedant effect or growth inhibition) at 200 ppm [2] | percent control (mortality or growth inhibition) at 200 ppm [3] | percent control (mortality or growth inhibition) at 200 ppm [4]

CC(NC(=O)c1cc(C(F)(F)F)cc(C(F)(F)F)c1)c1nc(Br)nn1-c1ccc(C#N)cn1 (stereo not shown) [Compound P11, N-[1-[5-bromo-2-(5-cyano-2-pyridyl)-1,2,4-triazol-3-yl]ethyl]-3,5-bis(trifluoromethyl)benzamide]
≥ 80%: percent control (mortality, anti-feedant effect or growth inhibition) at 200 ppm [1] | percent control (mortality, anti-feedant effect or growth inhibition) at 200 ppm [2] | percent control (mortality or growth inhibition) at 200 ppm [3] | percent control (mortality or growth inhibition) at 200 ppm [4]

CC(NC(=O)c1cc(OCC(F)(F)F)cc(C(F)(F)F)c1)c1nc(Br)nn1-c1ccc(OC(F)F)cn1 (stereo not shown) [Compound P14, N-[1-[5-bromo-2-[5-(difluoromethoxy)-2-pyridyl]-1,2,4-triazol-3-yl]ethyl]-3-(2,2,2-trifluoroethoxy)-5-(trifluoromethyl) benzamide]
≥ 80%: percent control (mortality, anti-feedant effect or growth inhibition) at 200 ppm [1] | percent control (mortality, anti-feedant effect or growth inhibition) at 200 ppm [2] | percent control (mortality or growth inhibition) at 200 ppm [3] | percent control (mortality or growth inhibition) at 200 ppm [4]

CC(NC(=O)c1cc(OC(F)(F)F)cc(C(F)(F)F)c1)c1nc(Br)nn1-c1ncc(OCC(F)F)cn1 (stereo not shown) [Compound P22, N-[1-[5-bromo-2-[5-(2,2-difluoroethoxy)pyrimidin-2-yl]-1,2,4-triazol-3-yl]ethyl]-3-(trifluoromethoxy)-5-(trifluoromethyl) benzamide]
≥ 80%: percent control (mortality, anti-feedant effect or growth inhibition) at 200 ppm [1] | percent control (mortality, anti-feedant effect or growth inhibition) at 200 ppm [2] | percent control (mortality or growth inhibition) at 200 ppm [3] | percent control (mortality or growth inhibition) at 200 ppm [4]

CC(NC(=O)c1cc(SC(F)(F)F)cc(C(F)(F)F)c1)c1nc(Br)nn1-c1ncc(OCC(F)F)cn1 (stereo not shown) [Compound P24, N-[1-[5-bromo-2-[5-(2,2-difluoroethoxy)pyrimidin-2-yl]-1,2,4-triazol-3-yl]ethyl]-3-(trifluoromethyl)-5-(trifluoromethyl-sulfanyl)benzamide]
≥ 80%: percent control (mortality, anti-feedant effect or growth inhibition) at 200 ppm [1] | percent control (mortality, anti-feedant effect or growth inhibition) at 200 ppm [2] | percent control (mortality or growth inhibition) at 200 ppm [3] | percent control (mortality or growth inhibition) at 200 ppm [4]

CC(NC(=O)c1cc(C(F)(F)F)cc(C(F)(F)F)c1)c1nc(Br)nn1-c1ncc(OCC(F)F)cn1 (stereo not shown) [Compound P25, N-[1-[5-bromo-2-[5-(2,2-difluoroethoxy)pyrimidin-2-yl]-1,2,4-triazol-3-yl]ethyl]-3,5-bis(trifluoromethyl) benzamide]
≥ 80%: percent control (mortality, anti-feedant effect or growth inhibition) at 200 ppm [1] | percent control (mortality, anti-feedant effect or growth inhibition) at 200 ppm [2] | percent control (mortality or growth inhibition) at 200 ppm [3] | percent control (mortality or growth inhibition) at 200 ppm [4]

CC(NC(=O)c1cc(C(F)(F)F)cc(C(F)(F)F)c1)c1nc(-c2ncccn2)nn1-c1ccc(C#N)cn1 (stereo not shown) [Compound P32, N-[1-[2-(5-cyano-2-pyridyl)-5-pyrimidin-2-yl-1,2,4-triazol-3-yl]ethyl]-3,5-bis(trifluoromethyl) benzamide]
≥ 80%: percent control (mortality, anti-feedant effect or growth inhibition) at 200 ppm [1] | percent control (mortality, anti-feedant effect or growth inhibition) at 200 ppm [2] | percent control (mortality or growth inhibition) at 200 ppm [3] | percent control (mortality or growth inhibition) at 200 ppm [4]

CC(NC(=O)c1cc(OCC(F)F)cc(C(F)(F)F)c1)c1nc(Br)nn1-c1ccc(C#N)cn1 (stereo not shown) [Compound P33, N-[1-[5-bromo-2-(5-cyano-2-pyridyl)-1,2,4-triazol-3-yl]ethyl]-3-(2,2-difluoroethoxy)-5-(trifluoromethyl)benzamide]
≥ 80%: percent control (mortality, anti-feedant effect or growth inhibition) at 200 ppm [1] | percent control (mortality, anti-feedant effect or growth inhibition) at 200 ppm [2] | percent control (mortality or growth inhibition) at 200 ppm [3]

CC(NC(=O)c1cc(Cl)cc(C(F)(F)F)c1)c1nc(Br)nn1-c1ccc(OCC(F)(F)F)cn1 (stereo not shown) [Compound P37, N-[1-[5-bromo-2-[5-(2,2,2-trifluoroethoxy)-2-pyridyl]-1,2,4-triazol-3-yl]ethyl]-3-chloro-5-(trifluoromethyl) benzamide]
≥ 80%: percent control (mortality, anti-feedant effect or growth inhibition) at 200 ppm [1] | percent control (mortality, anti-feedant effect or growth inhibition) at 200 ppm [2] | percent control (mortality or growth inhibition) at 200 ppm [3]

CC(NC(=O)c1cc(OCC(F)(F)F)cc(C(F)(F)F)c1)c1nc(Br)nn1-c1ccc(OCC(F)(F)F)cn1 (stereo not shown) [Compound P39, N-[1-[5-bromo-2-[5-(2,2,2-trifluoroethoxy)-2-pyridyl]-1,2,4-triazol-3-yl]ethyl]-3-(2,2,2-trifluoroethoxy)-5-(trifluoromethyl) benzamide]
≥ 80%: percent control (mortality, anti-feedant effect or growth inhibition) at 200 ppm [2] | percent control (mortality or growth inhibition) at 200 ppm [3]

CC(NC(=O)c1cc(C(F)(F)F)cc(C(F)(F)F)c1)c1nc(C#N)nn1-c1ccc(C#N)cn1 (stereo not shown) [Compound P48, N-[1-[5-cyano-2-(5-cyano-2-pyridyl)-1,2,4-triazol-3-yl]ethyl]-3,5-bis(trifluoromethyl) benzamide]
≥ 80%: percent control (mortality, anti-feedant effect or growth inhibition) at 200 ppm [1] | percent control (mortality, anti-feedant effect or growth inhibition) at 200 ppm [2] | percent control (mortality or growth inhibition) at 200 ppm [4]

CC(NC(=O)c1cc(Br)cc(C(F)(F)F)c1)c1nc(Br)nn1-c1ccc(OCC(F)(F)F)cn1 (stereo not shown) [Compound P50, 3-bromo-N-[1-[5-bromo-2-[5-(2,2,2-trifluoroethoxy)-2-pyridyl]-1,2,4-triazol-3-yl]ethyl]-5-(trifluoromethyl) benzamide]
≥ 80%: percent control (mortality, anti-feedant effect or growth inhibition) at 200 ppm [1] | percent control (mortality or growth inhibition) at 200 ppm [3]
